In patent US12590062B2, “PD-1/PD-L1 inhibitors” (Gilead Sciences, Inc., priority 2017, dated 2026):

Tests used:
PD-1/PD-L1 interaction = biological target: T1, PD-1/PD-L1 interaction (Homo sapiens, UniProt Q9NZQ7); test: PD-1/PD-L1 NFAT reporter co-culture assay; type: cell-based; details: Jurkat PD-1 NFAT-luciferase cells co-cultured with aAPC-PD-L1 CHO cells, 6 hrs at 37° C.; read-out: EC50 NFAT Luciferase
T1 construct: expressed in transfected cells; host or cells: CHO cells (aAPC-PD-L1) co-cultured with Jurkat cells overexpressing PD-1 and an NFAT-luciferase reporter
Method in brief: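 Jurkat cells overexpressing PD-1 with NFAT-luciferase mixed with compounds and plated onto CHO aAPCs expressing anti-CD3 and PD-L1, RPMI with 2% FBS. Co-culture 6 h at 37 °C; luminescence read with ONE-Glo. EC50 from four-parameter fit.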

PD-1/PD-L1 = PD-1/PD-L1 (Homo sapiens, UniProt Q9NZQ7); test: PD-1/PD-L1 biochemical protein-protein interaction assay (ALPHA); type: binding; details: 0.3 nM His tagged PD-L1, 2.5 nM biotinylated Fc-PD-1, 60 minutes at 25° C., read-out: IC50 PD-L1-PD-1 Alpha IC50-mono PD-L1-fcP-D1
Method in brief: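 Bead proximity read-out: compound-driven loss of ALPHA signal between anti-His acceptor and streptavidin donor beads (20 μg/mL acceptor). Proteins: 0.3 nM His-PD-L1, 2.5 nM biotin-Fc-PD-1, final. 60 min, 25° C, Hepes pH 7.4 buffer. IC50 via four-parameter dose-response fit.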

T1 sequence (Q9NZQ7 19-290): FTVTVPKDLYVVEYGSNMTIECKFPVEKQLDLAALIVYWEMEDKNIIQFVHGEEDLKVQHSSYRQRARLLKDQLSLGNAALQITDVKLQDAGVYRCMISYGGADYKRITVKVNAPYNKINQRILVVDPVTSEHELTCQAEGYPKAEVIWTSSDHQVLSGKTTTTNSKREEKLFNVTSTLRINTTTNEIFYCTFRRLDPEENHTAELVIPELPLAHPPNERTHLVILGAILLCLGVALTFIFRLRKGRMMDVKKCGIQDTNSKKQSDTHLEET
Chain of PD-1/PD-L1 (Q9NZQ7 19-238 limits assumed): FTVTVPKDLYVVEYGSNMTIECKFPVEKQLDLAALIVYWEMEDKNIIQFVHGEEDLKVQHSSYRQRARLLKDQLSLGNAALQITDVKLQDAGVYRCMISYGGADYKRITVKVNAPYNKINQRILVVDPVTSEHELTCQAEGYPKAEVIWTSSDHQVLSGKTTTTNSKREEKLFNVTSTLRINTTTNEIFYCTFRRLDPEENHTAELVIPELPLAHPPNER

Row | SMILES | EC50 (PD-1/PD-L1 interaction) [µM] | IC50 (PD-1/PD-L1) [µM]
1 | Cc1c(COc2cc(OCc3nccs3)c(CNC[C@@H](O)CC(=O)O)cc2Cl)cccc1-c1cccc(COc2cc(OCc3nccs3)c(CNC[C@@H](O)CC(=O)O)cc2Cl)c1C [Example 262, (3S,3′S)-4,4′-((((((2,2′-dimethyl-[1,1′-biphenyl]-3,3′-diyl)bis(methylene))bis(oxy))bis(5-chloro-2-(thiazol-2-ylmethoxy)-4,1-phenylene))bis(methylene))bis(azanediyl))bis(3-hydroxybutanoic acid)] | 8.62 | 0.0015
2 | COc1nc(OCc2cccc(-c3cccc(COc4nc(OC)c(CNC[C@@H](O)CC(=O)O)cc4S(C)(=O)=O)c3C)c2C)c(S(C)(=O)=O)cc1CNC[C@@H](O)CC(=O)O [Example 263, (3S,3′S)-4,4′-((((((2,2′-dimethyl-[1,1′-biphenyl]-3,3′-diyl)bis(methylene))bis(oxy))bis(2-methoxy-5-(methylsulfonyl)pyridine-6,3-diyl))bis(methylene))bis(azanediyl))bis(3-hydroxybutanoic acid)] | 36.4 | 0.0018
3 | Cc1c(COc2ccc(CNC[C@@H](O)CC(=O)O)c(OCc3cc(C#N)ccc3F)c2)cccc1-c1cccc(COc2ccc(CNC[C@@H](O)CC(=O)O)c(OCc3cc(C#N)ccc3F)c2)c1C [Example 265, (3S,3′S)-4,4′-((((((2,2′-dimethyl-[1,1′-biphenyl]-3,3′-diyl)bis(methylene))bis(oxy))bis(2-((5-cyano-2-fluorobenzyl)oxy)-4,1-phenylene))bis(methylene))bis(azanediyl))bis(3-hydroxybutanoic acid)] | 7.06 | 0.0032
4 | Cc1c(COc2nc(OCc3ccc(N4CCOCC4)nc3)c(CNC[C@@H](O)CC(=O)O)cc2Br)cccc1-c1cccc(COc2nc(OCc3ccc(N4CCOCC4)nc3)c(CNC[C@@H](O)CC(=O)O)cc2Br)c1C [Example 269, (3S,3′S)-4,4′-((((((2,2′-dimethyl-[1,1′-biphenyl]-3,3′-diyl)bis(methylene))bis(oxy))bis(5-bromo-2-((6-morpholinopyridin-3-yl)methoxy)pyridine-6,3-diyl))bis(methylene))bis(azanediyl))bis(3-hydroxybutanoic acid)] | ≥ 50 | 0.0123
5 | CCOc1nc(OCc2cccc(-c3cccc(COc4ccc(CNCCO)c(OCC)n4)c3C)c2C)ccc1CNCCO [Example 271, 2,2′-((((((2,2′-dimethyl-[1,1′-biphenyl]-3,3′-diyl)bis(methylene))bis(oxy))bis(2-ethoxypyridine-6,3-diyl))bis(methylene))bis(azanediyl))bis(ethan-1-ol)] | ≥ 50 | 0.056
6 | Cc1c(COc2ccc(CNC[C@@H](O)CC(=O)O)c(-c3cncc(C#N)c3)c2)cccc1-c1cccc(COc2ccc(CNC[C@@H](O)CC(=O)O)c(-c3cncc(C#N)c3)c2)c1C [Example 272, (3S,3′S)-4,4′-((((((2,2′-dimethyl-[1,1′-biphenyl]-3,3′-diyl)bis(methylene))bis(oxy))bis(2-(5-cyanopyridin-3-yl)-4,1-phenylene))bis(methylene))bis(azanediyl))bis(3-hydroxybutanoic acid)] | 37.7 | 0.0025
7 | Cc1c(COc2cc(OCc3nc4ccccc4[nH]3)c(CNC[C@@H](O)CC(=O)O)cc2Cl)cccc1-c1cccc(COc2cc(OCc3nc4ccccc4[nH]3)c(CNC[C@@H](O)CC(=O)O)cc2Cl)c1C [Example 273, (3S,3′S)-4,4′-((((((2,2′-dimethyl-[1,1′-biphenyl]-3,3′-diyl)bis(methylene))bis(oxy))bis(2-((1H-benzo[d]imidazol-2-yl)methoxy)-5-chloro-4,1-phenylene))bis(methylene))bis(azanediyl))bis(3-hydroxybutanoic acid)] | ≥ 50 | 0.2
8 | Cc1c(COc2ccc(CNC[C@@H](O)CC(=O)O)cc2Cl)cccc1-c1cccc(COc2ccc(CNC[C@@H](O)CC(=O)O)cc2Cl)c1C [Example 283, (3S,3′S)-4,4′-((((((2,2′-dimethyl-[1,1′-biphenyl]-3,3′-diyl)bis(methylene))bis(oxy))bis(3-chloro-4,1-phenylene))bis(methylene))bis(azanediyl))bis(3-hydroxybutanoic acid)] | 20.9 | 0.0008

The remaining lines, values ahead:

Row | EC50 (PD-1/PD-L1 interaction) [µM] | IC50 (PD-1/PD-L1) [µM] | SMILES
9 | 0.657 | 0.024 | Cc1c(COc2cc(OCc3cncc(C#N)c3)c(CNC[C@@H](O)CO)cc2Br)cccc1-c1cccc(COc2cc(OCc3cncc(C#N)c3)c(CNC[C@@H](O)CO)cc2Br)c1C [Example 257, 5,5′-((((((2,2′-dimethyl-[1,1′-biphenyl]-3,3′-diyl)bis(methylene))bis(oxy))bis(4-bromo-6-((((R)-2,3-dihydroxypropyl)amino)methyl)-3,1-phenylene))bis(oxy))bis(methylene))dinicotinonitrile]
10 | 0.419 | 0.0063 | Cc1c(COc2cc(OCc3cncc(C#N)c3)c(CN3CC[C@@H]3CO)cc2Br)cccc1-c1cccc(COc2cc(OCc3cncc(C#N)c3)c(CN3CC[C@@H]3CO)cc2Br)c1C [Example 258, 5,5′-((((((2,2′-dimethyl-[1,1′-biphenyl]-3,3′-diyl)bis(methylene))bis(oxy))bis(4-bromo-6-(((R)-2-(hydroxymethyl)azetidin-1-yl)methyl)-3,1-phenylene))bis(oxy))bis(methylene))dinicotinonitrile]
11 | 0.511 | 0.0227 | Cc1c(COc2cc(OCc3cncc(C#N)c3)c(CNC[C@H](O)CO)cc2Br)cccc1-c1cccc(COc2cc(OCc3cncc(C#N)c3)c(CNC[C@H](O)CO)cc2Br)c1C [Example 259, 5,5′-((((((2,2′-dimethyl-[1,1′-biphenyl]-3,3′-diyl)bis(methylene))bis(oxy))bis(4-bromo-6-((((S)-2,3-dihydroxypropyl)amino)methyl)-3,1-phenylene))bis(oxy))bis(methylene))dinicotinonitrile]
12 | 3.17 | 0.12 | Cc1c(COc2cc(OCc3cncc(C#N)c3)c(CNCc3ncc[nH]3)cc2Br)cccc1-c1cccc(COc2cc(OCc3cncc(C#N)c3)c(CNCc3ncc[nH]3)cc2Br)c1C [Example 261, 5,5′-((((((2,2′-dimethyl-[1,1′-biphenyl]-3,3′-diyl)bis(methylene))bis(oxy))bis(6-((((1H-imidazol-2-yl)methyl)amino)methyl)-4-bromo-3,1-phenylene))bis(oxy))bis(methylene))dinicotinonitrile]
13 | 8.54 | 0.0011 | N#Cc1cncc(COc2cc(C(=O)N3CCc4c(-c5cccc6c5CCN6C(=O)c5ccc(CNC[C@@H](O)CC(=O)O)c(OCc6cncc(C#N)c6)c5)cccc43)ccc2CNC[C@@H](O)CC(=O)O)c1 [Example 267, (3S,3′S)-4,4′-(((([4,4′-biindoline]-1,1′-dicarbonyl)bis(2-((5-cyanopyridin-3-yl)methoxy)-4,1-phenylene))bis(methylene))bis(azanediyl))bis(3-hydroxybutanoic acid)]
14 | 10.4 | 0.154 | Cc1c(COc2cc(OCc3cncc(C#N)c3)c(CNCc3ccccn3)cc2Br)cccc1-c1cccc(COc2cc(OCc3cncc(C#N)c3)c(CNCc3ccccn3)cc2Br)c1C [Example 275, 5,5′-((((((2,2′-dimethyl-[1,1′-biphenyl]-3,3′-diyl)bis(methylene))bis(oxy))bis(4-bromo-6-(((pyridin-2-ylmethyl)amino)methyl)-3,1-phenylene))bis(oxy))bis(methylene))dinicotinonitrile]
15 | 2.05 | 0.0778 | Cc1c(COc2cc(OCc3cncc(C#N)c3)c(CNC[C@@H](F)C(C)(C)O)cc2Cl)cccc1-c1cccc(COc2cc(OCc3cncc(C#N)c3)c(CNC[C@@H](F)C(C)(C)O)cc2Cl)c1C [Example 276, 5,5′-((((((2,2′-dimethyl-[1,1′-biphenyl]-3,3′-diyl)bis(methylene))bis(oxy))bis(4-chloro-6-((((R)-2-fluoro-3-hydroxy-3-methylbutyl)amino)methyl)-3,1-phenylene))bis(oxy))bis(methylene))dinicotinonitrile]
16 | ≥ 50 | 0.125 | Cc1c(COc2cc(O)c(CNC[C@@H](F)C(C)(C)O)cc2Cl)cccc1-c1cccc(COc2cc(OCc3cncc(C#N)c3)c(CNC[C@@H](F)C(C)(C)O)cc2Cl)c1C [Example 277, 5-((4-chloro-5-((3′-((2-chloro-4-((((R)-2-fluoro-3-hydroxy-3-methylbutyl)amino)methyl)-5-hydroxyphenoxy)methyl)-2,2′-dimethyl-[1,1′-biphenyl]-3-yl)methoxy)-2-((((R)-2-fluoro-3-hydroxy-3-methylbutyl)amino)methyl)phenoxy)methyl)nicotinonitrile]
17 | 0.488 | 0.0087 | Cc1c(COc2cc(OCc3cncc(C#N)c3)c(CNC(CO)CO)cc2Cl)cccc1-c1cccc(COc2cc(OCc3cncc(C#N)c3)c(CNC(CO)CO)cc2Cl)c1C [Example 281, 5,5′-((((((2,2′-dimethyl-[1,1′-biphenyl]-3,3′-diyl)bis(methylene))bis(oxy))bis(4-chloro-6-(((1,3-dihydroxypropan-2-yl)amino)methyl)-3,1-phenylene))bis(oxy))bis(methylene))dinicotinonitrile]
